Here are results for 23 sequences from publication PMC12057046, “Elucidation of short linear motif-based interactions of the MIT and rhodanese domains of the ubiquitin-specific protease 8” (Biology Direct, 2025).

Assay [1] concerns USP8 MIT domain. As to the kind of experiment: SPOT array of predicted peptides from known interactors, USP8 MIT domain. Conditions: for Percentage (%) normalized to highest intensity and corrected for background: SPOT array, GST-tagged MIT 100 µM, overnight 4 °C, chemiluminescence, highest intensity = DNAJB6; for Percentage (%): Supplementary Fig. 4B, normalized to the highest intensity and corrected for background. The assay is classed as binding, human. The source says:
To further assess the SLiM-based interactions of the USP8 MIT domain, we designed a peptide array tiling 24 potential binding sites in previously reported USP8 interactors. We used SLiMSearch to search for peptides that contain shorter or longer matches to the motif (Supplementary Table S4A). […] The DNAJB6_118 - 130 peptide was predicted as a binder based on a partial DFx{2,3}R motif. The DNAJB6-USP8 interaction is supported by previous GST-pulldown experiments and colocalization of the two proteins in male mouse germ cells, and the interaction is thought to be of importance to the protein quality control to yield functional spermatozoa. In the case of the CDH1_863 - 877 peptide it was predicted as USP8 MIT ligand based on the presence of an RFxxL motif. The previous support of the CDH1-USP8 interaction is based on proximity labelling mass spectrometry, and our results thus provide evidence for a binary interaction between the two proteins and define a binding site. To confirm that the motifs used to predict the interactions were of importance for binding we designed an alanine scanning peptide SPOT array analysis of the DNAJB6_118 - 130 and the CDH1_863 - 877 peptides. […] In summary, we find that the USP8 MIT domain binds to a MIM1-like motif that can be expressed by [[…]], as well as degenerate variants thereof. […] The membranes of predicted peptides were purchased by JPT Peptide Technologies (Berlin, Germany). The membranes were incubated with blocking buffer containing 5% skim milk in TBST (50 mM Tris, 150 mM NaCl pH 7.5, 0.05% Tween-20) for two hours at room temperature. The blocked membranes were incubated with GST-tagged proteins (100 μM for MIT domain and 150 μM for the Rhodanese domain) in blocking buffer overnight at 4 °C. After rinsed with TBST the membranes were incubated with HRP-conjugated anti-GST antibody (Cytiva, RPN1236; 1:3000 dilution) in blocking buffer for 1 h at 4 °C and subsequently rinsed with TBST to remove any excess antibody. The ECL reagent (Clarity Max Western ECL substrate, 1705062, BioRad) was used for chemiluminescence read-out with the ChemiDoc Imaging system (BioRad). The images were analysed with Fiji (ImageJ2 version 2.9.0). […] used to design the peptide arrays with known interactors predicted to contain the motifs. The background signal intensity was subtracted, and the corrected signal intensities were normalized to the positive control and presented as percentage.

Assay [2] concerns USP8 MIT domain. As to the kind of experiment: Proteomic peptide-phage display (ProP-PD) selection against USP8 MIT domain. It is filed as binding, human. Also noted: Confidence: scale not given here. The procedure: We explored the peptide-binding of the USP8 MIT domain by using the purified GST-tagged MIT domain as bait in proteomic peptide-phage display (ProP-PD) selections and a library designed to display the predicted unstructured regions of the human proteome. The peptide-coding regions of the binding-enriched phage pools were analysed by next-generation sequencing (NGS). After filtering for high confidence ligands, ten ligands remained (Fig. 1B; Supplementary Table S1). None of the ten identified protein-protein interactions had been previously reported, based on comparison with the information available in IntAct, HIPPIE and BioGrid (February 2025). Of the USP8 interacting proteins found, the D site-binding protein (DBP), which is a clock-controlled transcription factor, appears as an interesting ligand as USP8 has been reported to be involved in controlling the circadian rhythm. Also, the CCDC88A-encoded protein Girdin is an interactor of potential biological relevance as it is a scaffolding protein involved in the EGFR pathway which USP8 is known to regulate. At the motif level, there was no shared consensus motif among the ten peptide ligands. However, by manual inspection we noticed that four of the peptides contained a shared [LI]xxR[IY]xxL sequence, which appears to be a variation of the [DE]xxLxxRLxxL[KR] MIM1 motif described in the Eukaryotic Linear Motif resource (ELM) (Fig. 1B). We performed a SPOT array alanine scanning analysis in which peptides are synthesised on a membrane, and where each amino acid position of the peptide is mutated to alanine (or glycine if alanine is in the wild type peptide) to evaluate the effect of the amino acid residues in binding. We tested two peptides containing the apparent MIM1-like motif, one from Girdin (Girdin1192 − 1207) and one from the histone-lysine N-methyltransferase SETD1B (SETD1B492 − 507). […] AlphaFold3 (AF3) modelling of the four peptides with the variant MIM1 motif and the MIT domain docked the peptides with high confidence (ipTM scores: HIVEP1_741 − 756: 0.87, Girdin1192 − 1207: 0.85, MLPH481 − 496: 0.82, SETD1B492 − 507: 0.75) at the expected MIM1 binding pocket (Fig. 1D). […] However, the USP8 MIT selection was dominated (more than 94% of NGS counts) by two peptides that lack an apparent MIM1 motif. The two peptides were from the EF-hand calcium-binding domain-containing protein 12 (EFCAB12_1 − 16: […]) and from DBP (DBP116 − 131: […]) (Fig. 1B). […] In comparison to this, the EFCAB12_1 − 16 peptide shares a potential Dx[YF]xxxH[SG] motif with the DBP116 − 131 (Fig. 1B). […] The AF3 model of DBP116 − 131 peptide supports the interaction of D120 of the DBP116 − 131 peptide with the residues K74 and N71 in the MIT domain (Fig. 1G), emphasizing the significance of the aspartic acid at this position. […] Of them, two peptides (SYNE2_853 − 868 and PKNOX1_56 − 71) where placed in the same binding site as the Girdin and DBP peptides with high confidences by AF3 modelling (ipTM 0.92 and 0.74; Supplementary Fig. S3).
Four rounds of phage selections were carried out using the second generation human disorderome library or the constructed deep mutational scanning library. At least three individual replicates were used for each bait protein. 10 µg of GST-tagged proteins or GST control (diluted in PBS from the stock of proteins kept in the purification elution buffer) were immobilized in 100 µL PBS on a 96-well MaxiSorp (Nunc) plate overnight at 4 °C. The plates were incubated with blocking buffer (with 0.5% BSA in PBS) for 1 h at 4 °C followed by washing with 0.05% Tween 20 in PBS four times. The naïve phage library (10^11 CFU) was diluted in 1/5th volume PEG/NaCl (20% PEG-8000, 0.4 M NaCl) and 1X PBS, incubated on ice for 10 min and centrifuged at 10,000 [drawing 3] g for 10 min. The pellet was resuspended in the volume of PBS (100 µL/ well). […]

On to “AGAALLALLAALCP [EGFR, Epidermal growth factor receptor peptide]”, for which, in assay [1], the “Percentage (%) normalized to highest intensity and corrected for background” value (“Percentage (%) normalized” below) is 6%; the “Percentage (%)” value is recorded as 6%.

With “APLLCLALLPALAA [NOTCH1, Neurogenic locus notch homolog protein 1 peptide]”, in assay [1], the “Percentage (%) normalized” value is given as 2%; the “Percentage (%)” value is given as 2%.

Consider “APPSLLLLLLAQLV [FZD5, Frizzled-5 peptide]”, for which, in assay [1], the “Percentage (%) normalized” value was 24%; the “Percentage (%)” value is 24%.

With “DDLSRRFEELKKKT [IST1, IST1 homolog peptide]”, in assay [1], the “Percentage (%) normalized” value is reported as 5%; the “Percentage (%)” value is reported as 5%.

For the sequence “DKEIDLELLQDLME [BIRC6, Baculoviral IAP repeat-containing protein 6 peptide]”, in assay [1], the “Percentage (%) normalized” value is listed as 12%; the “Percentage (%)” value is 12%.

Take “DPSNNFRLHNGRS [CFLAR, CASP8 and FADD-like apoptosis regulator peptide]”: in assay [1], the “Percentage (%) normalized” value is listed as 31%; the “Percentage (%)” value is listed as 31%.

For “GELLLLSLLLLLEP [PDGFRB, Platelet-derived growth factor receptor beta peptide]”, in assay [1], the “Percentage (%) normalized” value is given as -3.37%; the “Percentage (%)” value is given as -3%.

On to “KEPDALTLLAPAAG [HIF1A, Hypoxia-inducible factor 1-alpha peptide]”, for which, in assay [1], the “Percentage (%) normalized” value was -0.189%; the “Percentage (%)” value is recorded as 0%.

Take “MDLLFGRRKTPEELL [CHMP2A, Charged multivesicular body protein 2a peptide]”: in assay [1], the “Percentage (%) normalized” value is -8%; the “Percentage (%)” value is recorded as -8%.

“MVSWGRFICLVVVTM [FGFR2, Fibroblast growth factor receptor 2 peptide]”: in assay [1], the “Percentage (%) normalized” value is 2.8%; the “Percentage (%)” value was 3%.

On to “NKTLEYKIEILEKT [KIF23, Kinesin-like protein KIF23 peptide]”, for which, in assay [1], the “Percentage (%) normalized” value is 7%; the “Percentage (%)” value is listed as 7%.

In the case of “PPSSSLELLASLTP [PTPN23, Tyrosine-protein phosphatase non-receptor type 23 peptide]”, in assay [1], the “Percentage (%) normalized” value is listed as -7%; the “Percentage (%)” value was -7%.

As for “PQYTNLGLLNSMDQ [TP63 A14, Tumor protein 63 peptide, array position A14]”, in assay [1], the “Percentage (%) normalized” value is given as 8%; the “Percentage (%)” value is reported as 8%.

As for “QAAIALSLLESPKI [USP28, Ubiquitin carboxyl-terminal hydrolase 28 peptide]”, in assay [1], the “Percentage (%) normalized” value was 1.29%; the “Percentage (%)” value is given as 1%.

Consider “QGPALRYFQLPPRAA [SHANK1 B6, SHANK1 peptide, array position B6]”, for which, in assay [1], the “Percentage (%) normalized” value is 7%; the “Percentage (%)” value was 7%.

With “RFVVALVLLNVAAA [TGOLN2, Trans-Golgi network integral membrane protein 2 peptide]”, in assay [1], the “Percentage (%) normalized” value is reported as -4.72%; the “Percentage (%)” value was -5%.

Turning to “RGVLALALLALALC [RNF149, E3 ubiquitin-protein ligase RNF149 peptide]”, in assay [1], the “Percentage (%) normalized” value is 3%; the “Percentage (%)” value is on record as 3%.

Turning to “RPHDIFRQRKQNT [VIRMA, Protein virilizer homolog peptide]”, in assay [1], the “Percentage (%) normalized” value is 6.6%; the “Percentage (%)” value is reported as 7%.

As for “SEENGLPLLVLPPP [SHANK1 A11, SHANK1 peptide, array position A11]”, in assay [1], the “Percentage (%) normalized” value is -5.69%; the “Percentage (%)” value is reported as -6%.

Consider “SGETDLKLLEESIA [NR3C1, Glucocorticoid receptor peptide]”, for which, in assay [1], the “Percentage (%) normalized” value was -4.47%; the “Percentage (%)” value is -4%.

Regarding “SQKELESYMMRAQQLL [SYNE2_853 − 868, Nesprin-2 peptide]”, the “NGS counts (%)” value in assay [2] (ProP-PD, human disorderome library, GST-tagged MIT bait, four rounds of selection, percent of NGS counts associated with each peptide, Fig. 1B) was 0.43%. This sequence also yielded a max_counts in assay [2] (Total NGS counts) of 21. Moreover, the Confidence in assay [2] (calculated based on four metrics: overlapping peptides, replicated peptides, motif match, peptide counts) is listed as 2. In assay [2] (fraction of NGS counts for a selection), this sequence returned a Counts of 0.0007925. Also, in assay [2] (number of baits selections where the peptide has been observed, calculated on the domain level), the Promiscuity is 1. This sequence also gave a Replicates in assay [2] (number of screens against the bait protein in which the peptide has been found) of 3. The same sequence displayed a Specificity in assay [2] (proportion for the current bait of the total NGS read counts of the peptide for all baits screened with this library) of 1. Also, in assay [1], the “Percentage (%) normalized” value was -4%; the “Percentage (%)” value is -4%.

Consider “SRGLQLLLLSCAYS [CD83, CD83 antigen peptide]”, for which, in assay [1], the “Percentage (%) normalized” value is listed as 5.58%; the “Percentage (%)” value is 6%.

Turning to “TEQETLALLEVKRS [TMEM79, Transmembrane protein 79 peptide]”, in assay [1], the “Percentage (%) normalized” value was -4%; the “Percentage (%)” value is reported as -4%.
